Laboratory results: patent US9186360B2, “Treatment of respiratory disorders using TRPA1 antagonists” (GLENMARK PHARMACEUTICALS S.A., priority 2011, dated 2015)

How the values were obtained:
[1] = tested on: ovalbumin sensitized Dunkin Hartley guinea pigs; assay: Ovalbumin induced asthma model in guinea pigs, intra-tracheal dosing; format: in vivo, guinea pig; conditions: for Percent inhibition of eosinophils: BAL 48 hours after challenge; for Airway conductance sGAW (AUC): 4 hours before ovalbumin challenge
Experimental: Healthy male Dunkin Hartley guinea pigs weighing between 300-400 gm were sensitized on day 0 with (5 mg) and on day 2 with (10 mg) of ovalbumin (Ova) and 10 mg of aluminum hydroxide gel given intra peritoneal (i.p.). Guinea pigs were challenged with 0.3% aerosolized ovalbumin on Day 21 following sensitization.
Actively sensitized male guinea pigs with free access to water, were fasted overnight, and used for the studies. Animals were assigned to one of the following groups during each experiment as per Table 2 below.
Guinea pigs were dosed intra-tracheally with Compound 52 or vehicle 4 hours before exposure to aerosolized ovalbumin challenge. The control group of animals received vehicle (Lactose powder—2 mg/animal, i.t.) only.
Broncho Alveolar Lavage (BAL) was performed at 48 hours after challenge with ovalbumin. Animals were anesthetized with an overdose of urethane, trachea was exposed and BAL was performed 5 times using 5 mL PBS. All aspirates of BAL were pooled and total number of cells determined using a hemocytometer. The BAL was centrifuged, and the cell pellet re-suspended in 50 μL guinea pig serum and used for preparation of smears. Slides were stained with Giemsa stain and a differential cell count of 500 cells based on standard morphology was performed manually.
The total number of eosinophils in each BAL sample was calculated using the formula:
[formula] Percent inhibition of eosinophils was calculated using the following formula: […]
The results for the bronchoconstriction part were calculated as percent (%) change in sGaw from saline base-line readings with saline taken just 1 minute before the antigen challenge and reported as peak change (mean±S.E.M.) for every 5 minutes for a total duration of 30 min after OA challenge. Area under the curve (AUC) was determined for each animal using GraphPad Prism. The percent (%) increase in AUC in the treated group relative to the vehicle group was calculated. Data was statistically analyzed using ANOVA and Dunnett's post hoc test.

[2] = Pharmacokinetics in guinea pig upon intra-tracheal administration; format: in vivo; conditions: 500 mcg i.t.; for AUC0-24 / Cmax: mean ± SD (N = 3); for Tmax: guinea pig, other: intra-tracheal, 500 ug
Experimental: Guinea pigs were dosed intra-tracheally with Compound 52 with lactose as a vehicle. At various time points, animals were sacrificed with an overdose of urethane, trachea was exposed and BAL was performed 5 times using 5 mL PBS. Lung tissue was collected and kept at −70° C. until analysis. The BAL was centrifuged, and the cell pellet was collected and kept at −70° C. until analysis.

[3] = tested on: ovalbumin sensitized Brown Norway rats; assay: Ovalbumin challenge in Brown Norway rats, intra-tracheal dosing (Example 3); format: in vivo, rat; conditions: i.t.
Experimental: Male Brown Norway rats were sensitized subcutaneously on day 0, 14 and 21 with 0.5 ml solution containing 20 μg/ml ovalbumin and 40 mg/ml aluminum hydroxide. Simultaneously animals were injected intraperitoneally (i.p.) with 0.25 ml of B. pertussis vaccine/rat containing 4×10^8 heat killed bacilli/ml. Rats were challenged with 1% aerosolized ovalbumin on Day 28 following sensitization.
Test compounds were triturated and volume was made up with Normal Saline (0.9% NaCl). Animals were administered Compound 52 intra-tracheally 1 hour before ovalbumin challenge. Animals were sacrificed 48 hours after ovalbumin challenge and BAL was performed as mentioned in Example 2. The pooled BAL was used to determined total number of cells using a hemocytometer. Further, cell differential study was performed according to Example 2.
The total number of eosinophils in each BAL sample was calculated using the formula: […]
Percent inhibition of eosinophils was calculated using the following formula: […]
(§1) The data was statistically evaluated by ANOVA followed by Dunnett's multiple comparisons test.

human TRPM8 = human TRPM8 (Homo sapiens (Human), UniProt Q7Z2W7); assay: Radiometric calcium selectivity assay, CHO cells expressing human TRPM8 (icilin); format: cell-based; conditions: read-out: IC50 values hTRPM8
[4] = tested on: LPS exposed Brown Norway rats; assay: Aerosolized LPS induced airway inflammation in Brown Norway rats; format: in vivo, rat; conditions: i.t. 4 hours before LPS; Compound 52 1000 μg/animal, Compound 90 2000 μg/animal; BAL 12 hours
Experimental: Male Brown Norway rats were exposed to aerosolized Lipopolysaccharide (LPS) (100 μg/ml) for 40 minutes at 1.8 bar pressure using a nebulizer (Hudson Respiratory Care Incorporated), phosphate buffered saline (PBS) control animals were exposed to hyrdroxylamine hydrochloride in PBS.
Test compounds were triturated and volume was made up with either distilled water or normal saline (0.9% NaCl). Animals were administered Compound 52 and Compound 90 intra-treacheally 4 hours before LPS aerosolized exposure. Animals were sacrificed 12 hours after aerosolized exposure. The control group of animals received only 2 mg Lactose/100 μl distilled water/animal intratracheally or normal saline 100 μl/animal intratracheally.
Broncho alveolar lavage (BAL) was performed at approximately 12 hours after aerosolized exposure. Animals were euthanized with an overdose of urethane, trachea was exposed and BAL was performed 5 times using 2 ml PBS. All aspirates of BAL were pooled and total number of cells determined using a hemocytometer. BALFwas centrifuged. […]
The total number of neutrophils in each BAL sample was calculated using the formula:
[formula] Percent inhibition of neutrophils was calculated using the following formula:
[formula] Data was statistically evaluated by ANOVA followed by Dunnett's multiple comparisons test. […]

human TRPV1 = human TRPV1 (Homo sapiens (Human), UniProt Q8NER1); assay: Radiometric calcium selectivity assay, CHO cells expressing human TRPV1 (capsaicin); format: cell-based; conditions: read-out: IC50 values hTRPV1
human TRPV4 = human TRPV4 (Homo sapiens (Human), UniProt Q9HBA0); assay: Radiometric calcium selectivity assay, CHO cells expressing human TRPV4 (4α-phorbol 12,13-didecanoate); format: cell-based; conditions: read-out: IC50 values hTRPV4
human TRPV3 = human TRPV3 (Homo sapiens (Human), UniProt Q8NET8); assay: Radiometric calcium selectivity assay, CHO cells expressing human TRPV3 (2-aminoethoxydiphenyl borate); format: cell-based; conditions: read-out: IC50 values hTRPV3
[5] = tested on: ovalbumin sensitized Brown Norway rats; assay: Ovalbumin asthma model in Brown Norway rats (Example 5); format: in vivo, rat; conditions: i.t. 1 hour before ovalbumin challenge, BAL 48 hours; dose dependent
Experimental: Male BN rats were sensitized subcutaneously (s.c.) on day 0, 14 and 21 with 0.5 ml solution containing 20 μg/ml ovalbumin (Ova) and 40 mg/ml aluminum hydroxide. Simultaneously the animals were injected intraperitoneally (i.p.) with 0.25 ml of B. pertussis vaccine/rat containing 4×10^8 heat killed bacilli/ml. The rats were challenged with 1% aerosolized ovalbumin on Day 28 following sensitization.
Test compounds were triturated and volume was made up with Normal Saline (0.9% NaCl). Animals were administered TRPA1 antagonists (Compound 52, Compound 73, Compound 84, Compound 90 and Compound 92) intra-tracheally (i.t.) 1 hour and fluticasone 24 hours and 1 hour before ovalbumin challenge. Animals were sacrificed 48 hours after ovalbumin challenge.
BAL was performed at approximately 48 hours after ovalbumin challenge and the pooled BAL was used to determined total number of cells and for cell differential study (according to Example 2).
The total number of eosinophils in each BAL sample and % inhibition of eosinophils were calculated according to Example 3
as §1

Chain of human TRPM8 (Q7Z2W7 whole entry): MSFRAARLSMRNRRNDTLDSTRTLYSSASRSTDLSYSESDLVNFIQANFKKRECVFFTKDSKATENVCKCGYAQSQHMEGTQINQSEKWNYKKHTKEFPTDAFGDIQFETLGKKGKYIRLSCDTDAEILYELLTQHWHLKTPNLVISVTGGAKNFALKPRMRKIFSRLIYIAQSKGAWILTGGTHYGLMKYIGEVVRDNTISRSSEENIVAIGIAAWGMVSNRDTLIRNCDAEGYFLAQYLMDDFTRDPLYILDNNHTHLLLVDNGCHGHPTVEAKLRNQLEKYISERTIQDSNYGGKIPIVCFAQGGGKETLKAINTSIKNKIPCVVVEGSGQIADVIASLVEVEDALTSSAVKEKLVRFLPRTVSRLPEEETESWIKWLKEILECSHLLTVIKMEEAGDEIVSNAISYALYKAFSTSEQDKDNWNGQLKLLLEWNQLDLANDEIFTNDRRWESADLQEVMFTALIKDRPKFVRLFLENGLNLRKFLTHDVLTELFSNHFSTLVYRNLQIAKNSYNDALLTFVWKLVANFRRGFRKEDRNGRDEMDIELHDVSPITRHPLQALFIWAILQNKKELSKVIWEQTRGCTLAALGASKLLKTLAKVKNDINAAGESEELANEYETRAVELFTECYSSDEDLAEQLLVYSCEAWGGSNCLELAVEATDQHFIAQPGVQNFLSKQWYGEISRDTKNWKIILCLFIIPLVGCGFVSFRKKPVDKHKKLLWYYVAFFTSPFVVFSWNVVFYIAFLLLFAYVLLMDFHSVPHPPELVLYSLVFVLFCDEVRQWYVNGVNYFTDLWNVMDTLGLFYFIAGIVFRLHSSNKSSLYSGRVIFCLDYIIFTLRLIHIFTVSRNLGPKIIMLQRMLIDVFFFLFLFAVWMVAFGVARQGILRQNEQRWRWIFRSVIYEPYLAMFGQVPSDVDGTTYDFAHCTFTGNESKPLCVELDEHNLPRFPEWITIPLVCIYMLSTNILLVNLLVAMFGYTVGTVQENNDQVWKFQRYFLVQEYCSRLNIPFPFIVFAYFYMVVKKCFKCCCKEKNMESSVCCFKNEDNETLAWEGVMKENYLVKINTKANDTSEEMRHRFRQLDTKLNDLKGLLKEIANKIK
Chain of human TRPV3 (Q8NET8 whole entry): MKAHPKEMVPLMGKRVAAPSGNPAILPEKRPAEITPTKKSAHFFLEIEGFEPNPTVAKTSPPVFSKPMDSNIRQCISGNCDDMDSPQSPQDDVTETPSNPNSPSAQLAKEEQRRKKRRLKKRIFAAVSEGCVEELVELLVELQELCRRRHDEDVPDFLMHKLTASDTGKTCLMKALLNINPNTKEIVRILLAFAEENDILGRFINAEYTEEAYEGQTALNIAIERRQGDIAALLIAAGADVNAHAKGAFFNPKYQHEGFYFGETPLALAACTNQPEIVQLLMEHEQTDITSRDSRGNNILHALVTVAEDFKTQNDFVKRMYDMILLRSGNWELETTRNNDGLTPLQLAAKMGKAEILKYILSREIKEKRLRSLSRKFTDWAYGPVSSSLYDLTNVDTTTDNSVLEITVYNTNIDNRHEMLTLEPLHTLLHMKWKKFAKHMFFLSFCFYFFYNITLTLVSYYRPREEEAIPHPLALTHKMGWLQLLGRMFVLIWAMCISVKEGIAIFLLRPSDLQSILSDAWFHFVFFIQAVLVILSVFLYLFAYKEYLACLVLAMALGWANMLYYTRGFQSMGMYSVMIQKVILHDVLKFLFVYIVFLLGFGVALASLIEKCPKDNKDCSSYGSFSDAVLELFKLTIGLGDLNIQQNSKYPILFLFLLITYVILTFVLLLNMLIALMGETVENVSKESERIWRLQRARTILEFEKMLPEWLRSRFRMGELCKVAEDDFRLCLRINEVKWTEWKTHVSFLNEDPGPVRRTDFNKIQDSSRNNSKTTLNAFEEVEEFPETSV
Chain of human TRPV1 (Q8NER1 whole entry): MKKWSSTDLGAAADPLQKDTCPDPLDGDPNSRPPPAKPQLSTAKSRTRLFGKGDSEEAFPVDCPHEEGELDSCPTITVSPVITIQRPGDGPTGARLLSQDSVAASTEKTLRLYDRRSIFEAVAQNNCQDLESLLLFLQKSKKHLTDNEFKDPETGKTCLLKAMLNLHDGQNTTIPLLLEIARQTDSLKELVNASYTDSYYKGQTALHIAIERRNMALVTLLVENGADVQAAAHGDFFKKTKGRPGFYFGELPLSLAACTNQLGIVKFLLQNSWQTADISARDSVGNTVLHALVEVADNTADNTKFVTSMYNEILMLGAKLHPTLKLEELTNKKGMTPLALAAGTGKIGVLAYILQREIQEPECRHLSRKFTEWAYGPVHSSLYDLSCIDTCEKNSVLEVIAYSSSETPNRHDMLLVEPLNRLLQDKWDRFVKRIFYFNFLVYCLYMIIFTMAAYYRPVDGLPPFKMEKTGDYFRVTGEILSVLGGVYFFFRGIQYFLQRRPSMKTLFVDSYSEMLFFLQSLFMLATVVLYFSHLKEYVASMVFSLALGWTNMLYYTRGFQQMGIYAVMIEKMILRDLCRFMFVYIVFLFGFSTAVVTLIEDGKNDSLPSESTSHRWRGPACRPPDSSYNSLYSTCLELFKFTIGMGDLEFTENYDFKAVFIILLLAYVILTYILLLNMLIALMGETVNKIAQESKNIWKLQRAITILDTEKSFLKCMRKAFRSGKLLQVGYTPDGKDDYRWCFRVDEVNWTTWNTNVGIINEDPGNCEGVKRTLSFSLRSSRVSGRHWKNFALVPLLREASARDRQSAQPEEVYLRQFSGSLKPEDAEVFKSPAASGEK
Chain of human TRPV4 (Q9HBA0 whole entry): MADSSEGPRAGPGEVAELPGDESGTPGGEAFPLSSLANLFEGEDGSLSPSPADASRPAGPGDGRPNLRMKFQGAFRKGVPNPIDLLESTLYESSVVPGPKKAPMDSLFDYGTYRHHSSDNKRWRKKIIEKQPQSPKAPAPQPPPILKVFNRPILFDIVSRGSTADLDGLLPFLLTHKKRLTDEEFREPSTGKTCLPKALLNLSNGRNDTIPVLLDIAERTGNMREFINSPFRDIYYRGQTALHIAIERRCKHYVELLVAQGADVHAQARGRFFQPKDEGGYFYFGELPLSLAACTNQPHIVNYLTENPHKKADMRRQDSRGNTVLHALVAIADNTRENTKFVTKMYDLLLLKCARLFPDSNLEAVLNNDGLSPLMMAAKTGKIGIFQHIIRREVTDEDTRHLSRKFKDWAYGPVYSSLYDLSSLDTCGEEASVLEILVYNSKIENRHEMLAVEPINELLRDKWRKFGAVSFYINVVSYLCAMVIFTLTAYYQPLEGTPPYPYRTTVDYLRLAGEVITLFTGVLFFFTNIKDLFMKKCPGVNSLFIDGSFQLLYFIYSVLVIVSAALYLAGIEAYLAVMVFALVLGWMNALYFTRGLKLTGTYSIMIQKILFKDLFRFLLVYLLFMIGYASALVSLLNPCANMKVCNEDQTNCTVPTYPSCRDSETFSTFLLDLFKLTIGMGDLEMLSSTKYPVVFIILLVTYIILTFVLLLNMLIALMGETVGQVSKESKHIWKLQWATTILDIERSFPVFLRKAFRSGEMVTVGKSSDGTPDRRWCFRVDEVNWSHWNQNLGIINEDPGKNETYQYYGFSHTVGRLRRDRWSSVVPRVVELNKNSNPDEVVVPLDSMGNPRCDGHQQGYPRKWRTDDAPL

Structure (SMILES): Cn1c(=O)c2c(CC(=O)Nc3nc(-c4ccc(F)c(C(F)(F)F)c4F)cs3)csc2n(C)c1=O [Compound 52]
- Percent inhibition of eosinophils ([1]; dose 125 μg/animal i.t.): 61%
- Percent inhibition of eosinophils ([1]; dose 250 μg/animal i.t.): 87%
- Percent inhibition of eosinophils ([1]; dose 500 μg/animal i.t.): 68%
- Airway conductance sGAW (AUC) ([1]; dose 25 (table μg/kg; text μg/animal) i.t.): 1399
- Percent improvement in airway conductance ([1]; dose 25 i.t.): 0%
- Percent inhibition of eosinophils ([1]; dose 25 i.t.): 0%
- Percent improvement in airway conductance ([1]; dose 50 i.t.): 7%
- Airway conductance sGAW (AUC) ([1]; dose 50 i.t.): 1592
- Percent inhibition of eosinophils ([1]; dose 50 i.t.): 0%
- Percent improvement in airway conductance ([1]; dose 125 i.t.): 39%
- Airway conductance sGAW (AUC) ([1]; dose 125 i.t.): 1943
- Percent improvement in airway conductance ([1]; dose 250 i.t.): 45%
- Airway conductance sGAW (AUC) ([1]; dose 250 i.t.): 2004
- Percent improvement in airway conductance ([1]; dose 500 i.t.): 43%
- Airway conductance sGAW (AUC) ([1]; dose 500 i.t.): 1987
- inhibition of eosinophils ([1]; dose not stated for this figure): 75%
- AUC0-24 ([2]; Cell Pellet (BAL)): 70390 ± 12071 ng · h/ml or g
- Cmax ([2]; Cell Pellet (BAL)): 6726 ± 2049 ng/ml or g
- AUC0-24 ([2]; Lung Tissue): 103786 ± 28285 ng · h/ml or g
- Cmax ([2]; Lung Tissue): 4989 ± 2548 ng/ml or g
- Tmax ([2]; Cell Pellet (BAL)): 0.25 h
- Tmax ([2]; Lung Tissue): 8 h
- ED50, inhibition of pulmonary eosinophilia [3]: 213 µg

Structure (SMILES): COCCCOc1cccc(C2NC(=S)NC3=C2C(=O)c2ccccc23)c1 (centres unmarked) [Compound 90]
- IC50 (human TRPM8): > 10 µM
- neutrophils in BALF [4]: significant inhibition
- total leukocytes in BALF [4]: significant inhibition
- IC50 (human TRPV1): > 10 µM
- IC50 (human TRPV4): > 10 µM
- IC50 (human TRPV3): > 10 µM
- pulmonary eosinophilia [5]: significant inhibition

Structure (SMILES): Cn1c(=O)c2c(CC(=O)Nc3nc(-c4ccc(F)c(C(F)(F)F)c4F)cs3)onc2n(C)c1=O [Compound 92]
- IC50 (human TRPM8): > 10 µM
- IC50 (human TRPV1): > 10 µM
- IC50 (human TRPV4): > 1 µM
- IC50 (human TRPV3): > 1 µM
- pulmonary eosinophilia [5]: significant inhibition
